{"source": "PubChem BioAssay AID1745844", "about": "(Carcinogenic Potency Database (CPDB), 2022)", "test_system": "rodent lifetime carcinogenesis bioassay, tumor incidence TD50", "assay": "carcinogenic potency in animals, long-term in vivo studies, CPDB compilation (AID 1745844)", "note": "Active and inactive are the calls of the source. The rule behind the calls is not given here.", "data": [{"smiles": "NNCCc1ccccc1", "values": [{"measurement": "TD50", "setting": "mouse, strain Swiss albino, females, in drinking water, site: blood vessels, lesion: angiosarcoma, dosed 93 weeks, study length 93 weeks", "result": 20.4, "unit": "mg/kg/day"}, {"measurement": "TD50", "setting": "mouse, strain Swiss albino, females, in drinking water, site: blood vessels, lesion: several types, types named in the paper, dosed 93 weeks, study length 93 weeks", "result": 14.6, "unit": "mg/kg/day"}, {"measurement": "TD50", "setting": "mouse, strain Swiss albino, females, in drinking water, site: fat, lesion: angiosarcoma, dosed 93 weeks, study length 93 weeks", "result": 23.7, "unit": "mg/kg/day"}, {"measurement": "TD50", "setting": "mouse, strain Swiss albino, females, in drinking water, site: liver, lesion: several types, types named in the paper, dosed 93 weeks, study length 93 weeks", "result": 278, "unit": "mg/kg/day"}, {"measurement": "TD50", "setting": "mouse, strain Swiss albino, females, in drinking water, site: lung, lesion: adenoma, dosed 93 weeks, study length 93 weeks", "result": 25.8, "unit": "mg/kg/day"}, {"measurement": "TD50", "setting": "mouse, strain Swiss albino, females, in drinking water, site: lung, lesion: angiosarcoma, dosed 93 weeks, study length 93 weeks", "result": 123, "unit": "mg/kg/day"}, {"measurement": "TD50", "setting": "mouse, strain Swiss albino, females, in drinking water, site: lung, lesion: several types, types named in the paper, dosed 93 weeks, study length 93 weeks", "result": 27.5, "unit": "mg/kg/day"}, {"measurement": "TD50", "setting": "mouse, strain Swiss albino, females, in drinking water, site: muscle, lesion: angiosarcoma, dosed 93 weeks, study length 93 weeks", "result": 21.7, "unit": "mg/kg/day"}, {"measurement": "TD50", "setting": "mouse, strain Swiss albino, females, in drinking water, site: subcutaneous tissue, lesion: angiosarcoma, dosed 93 weeks, study length 93 weeks", "result": 19.9, "unit": "mg/kg/day"}, {"measurement": "carcinogen call", "setting": "mouse, strain Swiss albino, males, in drinking water, site: liver, lesion: several types, types named in the paper, dosed 99 weeks, study length 99 weeks", "result": "negative (inactive)"}, {"measurement": "TD50", "setting": "mouse, strain Swiss albino, males, in drinking water, site: lung, lesion: adenoma, dosed 99 weeks, study length 99 weeks", "result": "30 mg/kg/day (inactive)"}, {"measurement": "TD50", "setting": "mouse, strain Swiss albino, males, in drinking water, site: lung, lesion: several types, types named in the paper, dosed 99 weeks, study length 99 weeks", "result": "33.1 mg/kg/day (inactive)"}]}, {"smiles": "Cc1ccc2c(c1[N+](=O)[O-])C(=O)c1ccccc1C2=O", "values": [{"measurement": "TD50", "setting": "mouse, strain B6C3F1, females, in feed, site: any site (literature study), lesion: several types, types named in the paper, dosed 49 weeks, study length 49 weeks", "result": 1.76, "unit": "mg/kg/day"}, {"measurement": "TD50", "setting": "mouse, strain B6C3F1, females, in feed, site: lung, lesion: alveolar/bronchiolar adenoma + alveolar/bronchiolar carcinoma, dosed 49 weeks, study length 49 weeks", "result": 97.3, "unit": "mg/kg/day"}, {"measurement": "TD50", "setting": "mouse, strain B6C3F1, females, in feed, site: subcutaneous tissue, lesion: hemangiosarcoma, dosed 49 weeks, study length 49 weeks", "result": 1.88, "unit": "mg/kg/day"}, {"measurement": "TD50", "setting": "mouse, strain B6C3F1, males, in feed, site: any site (literature study), lesion: several types, types named in the paper, dosed 46 weeks, study length 46 weeks", "result": 1.02, "unit": "mg/kg/day"}, {"measurement": "TD50", "setting": "mouse, strain B6C3F1, males, in feed, site: lung, lesion: alveolar/bronchiolar adenoma + alveolar/bronchiolar carcinoma, dosed 46 weeks, study length 46 weeks", "result": 45.5, "unit": "mg/kg/day"}, {"measurement": "TD50", "setting": "mouse, strain B6C3F1, males, in feed, site: subcutaneous tissue, lesion: hemangiosarcoma, dosed 46 weeks, study length 46 weeks", "result": 1.34, "unit": "mg/kg/day"}, {"measurement": "TD50", "setting": "rat, strain Fischer 344, females, in feed, site: any site (literature study), lesion: several types, types named in the paper, dosed 78 weeks, study length 109 weeks", "result": 47.1, "unit": "mg/kg/day"}, {"measurement": "TD50", "setting": "rat, strain Fischer 344, females, in feed, site: liver, lesion: hepatocellular adenoma + hepatocellular carcinoma + neoplastic nodule, dosed 78 weeks, study length 109 weeks", "result": 324, "unit": "mg/kg/day"}, {"measurement": "TD50", "setting": "rat, strain Fischer 344, females, in feed, site: liver, lesion: hepatocellular carcinoma + neoplastic nodule, dosed 78 weeks, study length 109 weeks", "result": 324, "unit": "mg/kg/day"}, {"measurement": "TD50", "setting": "rat, strain Fischer 344, females, in feed, site: liver, lesion: hepatocellular carcinoma, dosed 78 weeks, study length 109 weeks", "result": 547, "unit": "mg/kg/day"}, {"measurement": "TD50", "setting": "rat, strain Fischer 344, females, in feed, site: pituitary gland, lesion: adenoma, dosed 78 weeks, study length 109 weeks", "result": 63.4, "unit": "mg/kg/day"}, {"measurement": "TD50", "setting": "rat, strain Fischer 344, females, in feed, site: stomach, lesion: squamous-cell carcinoma, dosed 78 weeks, study length 109 weeks", "result": 507, "unit": "mg/kg/day"}, {"measurement": "TD50", "setting": "rat, strain Fischer 344, females, in feed, site: subcutaneous tissue, lesion: fibroma, dosed 78 weeks, study length 109 weeks", "result": 131, "unit": "mg/kg/day"}, {"measurement": "TD50", "setting": "rat, strain Fischer 344, females, in feed, site: urinary bladder, lesion: papilloma, NOS + sarcoma, NOS + transitional-cell papilloma, dosed 78 weeks, study length 109 weeks", "result": 224, "unit": "mg/kg/day"}, {"measurement": "TD50", "setting": "rat, strain Fischer 344, males, in feed, site: any site (literature study), lesion: several types, types named in the paper, dosed 78 weeks, study length 109 weeks", "result": 31.9, "unit": "mg/kg/day"}, {"measurement": "TD50", "setting": "rat, strain Fischer 344, males, in feed, site: liver, lesion: hepatocellular adenoma + hepatocellular carcinoma + neoplastic nodule, dosed 78 weeks, study length 109 weeks", "result": 48.8, "unit": "mg/kg/day"}, {"measurement": "TD50", "setting": "rat, strain Fischer 344, males, in feed, site: liver, lesion: hepatocellular carcinoma + neoplastic nodule, dosed 78 weeks, study length 109 weeks", "result": 48.8, "unit": "mg/kg/day"}, {"measurement": "TD50", "setting": "rat, strain Fischer 344, males, in feed, site: liver, lesion: hepatocellular carcinoma, dosed 78 weeks, study length 109 weeks", "result": 89.2, "unit": "mg/kg/day"}, {"measurement": "TD50", "setting": "rat, strain Fischer 344, males, in feed, site: liver, lesion: neoplastic nodule, dosed 78 weeks, study length 109 weeks", "result": 133, "unit": "mg/kg/day"}, {"measurement": "TD50", "setting": "rat, strain Fischer 344, males, in feed, site: subcutaneous tissue, lesion: fibroma, dosed 78 weeks, study length 109 weeks", "result": 25.8, "unit": "mg/kg/day"}]}, {"smiles": "CCCN(CCC)S(=O)(=O)c1ccc(C(=O)O)cc1", "values": [{"measurement": "TD50", "setting": "mouse, strain B6C3F1, females, by gavage, site: any site (literature study), lesion: several types, types named in the paper, dosed 103 weeks, study length 104 weeks", "result": 498, "unit": "mg/kg/day"}, {"measurement": "TD50", "setting": "mouse, strain B6C3F1, females, by gavage, site: liver, lesion: hepatocellular adenoma + hepatocellular carcinoma + neoplastic nodule, dosed 103 weeks, study length 104 weeks", "result": 540, "unit": "mg/kg/day"}, {"measurement": "TD50", "setting": "mouse, strain B6C3F1, females, by gavage, site: liver, lesion: hepatocellular adenoma + hepatocellular carcinoma, dosed 103 weeks, study length 104 weeks", "result": 540, "unit": "mg/kg/day"}, {"measurement": "TD50", "setting": "mouse, strain B6C3F1, females, by gavage, site: liver, lesion: hepatocellular adenoma, dosed 103 weeks, study length 104 weeks", "result": 561, "unit": "mg/kg/day"}, {"measurement": "TD50", "setting": "mouse, strain B6C3F1, females, by gavage, site: lung, lesion: alveolar/bronchiolar adenoma + alveolar/bronchiolar carcinoma, dosed 103 weeks, study length 104 weeks", "result": 1980, "unit": "mg/kg/day"}, {"measurement": "TD50", "setting": "mouse, strain B6C3F1, males, by gavage, site: any site (literature study), lesion: several types, types named in the paper, dosed 103 weeks, study length 104 weeks", "result": 276, "unit": "mg/kg/day"}, {"measurement": "TD50", "setting": "mouse, strain B6C3F1, males, by gavage, site: liver, lesion: hepatocellular adenoma + hepatocellular carcinoma + neoplastic nodule, dosed 103 weeks, study length 104 weeks", "result": 731, "unit": "mg/kg/day"}, {"measurement": "TD50", "setting": "mouse, strain B6C3F1, males, by gavage, site: lung, lesion: alveolar/bronchiolar adenoma + alveolar/bronchiolar carcinoma, dosed 103 weeks, study length 104 weeks", "result": 2320, "unit": "mg/kg/day"}, {"measurement": "TD50", "setting": "mouse, strain B6C3F1, males, by gavage, site: subcutaneous tissue, lesion: fibroma, dosed 103 weeks, study length 104 weeks", "result": "2130 mg/kg/day (inactive)"}, {"measurement": "TD50", "setting": "rat, strain Fischer 344, females, by gavage, site: any site (literature study), lesion: several types, types named in the paper, dosed 103 weeks, study length 104 weeks", "result": "1540 mg/kg/day (inactive)"}, {"measurement": "TD50", "setting": "rat, strain Fischer 344, females, by gavage, site: liver, lesion: hepatocellular adenoma + hepatocellular carcinoma + neoplastic nodule, dosed 103 weeks, study length 104 weeks", "result": 1790, "unit": "mg/kg/day"}, {"measurement": "TD50", "setting": "rat, strain Fischer 344, males, by gavage, site: any site (literature study), lesion: several types, types named in the paper, dosed 103 weeks, study length 104 weeks", "result": 296, "unit": "mg/kg/day"}, {"measurement": "TD50", "setting": "rat, strain Fischer 344, males, by gavage, site: testis, lesion: interstitial-cell adenoma, bilateral + interstitial-cell adenoma, dosed 103 weeks, study length 104 weeks", "result": "212 mg/kg/day (inactive)"}]}, {"smiles": "O=NN1CCC[C@H]1C(=O)O", "values": [{"measurement": "TD50", "setting": "rat, strain MRC, females, in drinking water, site: any site (literature study), lesion: several types, types named in the paper, dosed 75 weeks, study length 104 weeks", "result": "6.69 mg/kg/day (inactive)"}, {"measurement": "carcinogen call", "setting": "rat, strain MRC, males, in drinking water, site: any site (literature study), lesion: several types, types named in the paper, dosed 75 weeks, study length 104 weeks", "result": "negative (inactive)"}]}, {"smiles": "C=CCOc1ccc(CC(=O)O)cc1Cl", "values": [{"measurement": "carcinogen call", "setting": "rat, strain Wistar, females, in feed, site: any site (literature study), lesion: several types, types named in the paper, dosed 104 weeks, study length 104 weeks", "result": "negative (inactive)"}, {"measurement": "carcinogen call", "setting": "rat, strain Wistar, females, in feed, site: liver, lesion: several types, types named in the paper, dosed 104 weeks, study length 104 weeks", "result": "negative (inactive)"}, {"measurement": "TD50", "setting": "rat, strain Wistar, females, in feed, site: ovary, lesion: several types, types named in the paper, dosed 104 weeks, study length 104 weeks", "result": "390 mg/kg/day (inactive)"}, {"measurement": "carcinogen call", "setting": "rat, strain Wistar, males, in feed, site: any site (literature study), lesion: several types, types named in the paper, dosed 104 weeks, study length 104 weeks", "result": "negative (inactive)"}, {"measurement": "carcinogen call", "setting": "rat, strain Wistar, males, in feed, site: liver, lesion: several types, types named in the paper, dosed 104 weeks, study length 104 weeks", "result": "negative (inactive)"}]}]}
